Patent publication US9845295B2, “Triphenylethylene compounds and uses thereof” (Purdue Research Foundation, priority 2015, dated 2017)

Tests used:
[1] = target: T1, recombinant human aromatase (CYP19) (Homo sapiens, UniProt P11511); test: Inhibition of recombinant human aromatase (CYP19) by microsomal incubations (MFC fluorometric substrate); format: biochemical; settings: for aromatase percent inhibition: at 50000 nM compound, 50 µM; for times more potent than 7 against aromatase: ratio of IC50 values vs compound 7
T1 construct: purchased BD Biosciences (San Jose, Calif.)
T1 sequence (P11511 1-503): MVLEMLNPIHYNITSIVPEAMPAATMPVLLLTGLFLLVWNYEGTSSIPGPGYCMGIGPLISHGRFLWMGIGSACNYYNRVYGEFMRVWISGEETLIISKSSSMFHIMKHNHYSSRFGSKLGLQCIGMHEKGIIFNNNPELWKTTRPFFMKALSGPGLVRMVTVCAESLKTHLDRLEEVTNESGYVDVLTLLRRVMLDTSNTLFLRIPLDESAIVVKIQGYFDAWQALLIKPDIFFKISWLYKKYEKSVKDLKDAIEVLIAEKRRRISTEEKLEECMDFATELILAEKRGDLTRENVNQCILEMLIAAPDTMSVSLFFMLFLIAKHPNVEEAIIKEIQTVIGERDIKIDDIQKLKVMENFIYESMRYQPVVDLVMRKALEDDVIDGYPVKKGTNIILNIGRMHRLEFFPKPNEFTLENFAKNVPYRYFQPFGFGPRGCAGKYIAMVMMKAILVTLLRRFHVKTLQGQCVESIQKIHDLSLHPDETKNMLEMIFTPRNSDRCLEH
Experimental: Inhibition of Recombinant Human Aromatase (CYP19) by Microsomal Incubations.
All tested samples were dissolved in either methanol or DMSO. […] All the reactions were stopped by adding 0.1 M tris base dissolved in acetonitrile (75 μL). […] The extent of enzyme inhibition was expressed as the percentage of remaining enzyme activity compared to the control.

[2] = target: T2, recombinant human ER-α (Homo sapiens, UniProt P03372); test: Binding affinity for recombinant human ER-α (fluorescence polarization, ES2 displacement); settings: for IC50: read-out: binding affinities for ER-α (IC50)
T2 construct: purchased Invitrogen (Carlsbad, Calif.)
T2 sequence (P03372 1-595): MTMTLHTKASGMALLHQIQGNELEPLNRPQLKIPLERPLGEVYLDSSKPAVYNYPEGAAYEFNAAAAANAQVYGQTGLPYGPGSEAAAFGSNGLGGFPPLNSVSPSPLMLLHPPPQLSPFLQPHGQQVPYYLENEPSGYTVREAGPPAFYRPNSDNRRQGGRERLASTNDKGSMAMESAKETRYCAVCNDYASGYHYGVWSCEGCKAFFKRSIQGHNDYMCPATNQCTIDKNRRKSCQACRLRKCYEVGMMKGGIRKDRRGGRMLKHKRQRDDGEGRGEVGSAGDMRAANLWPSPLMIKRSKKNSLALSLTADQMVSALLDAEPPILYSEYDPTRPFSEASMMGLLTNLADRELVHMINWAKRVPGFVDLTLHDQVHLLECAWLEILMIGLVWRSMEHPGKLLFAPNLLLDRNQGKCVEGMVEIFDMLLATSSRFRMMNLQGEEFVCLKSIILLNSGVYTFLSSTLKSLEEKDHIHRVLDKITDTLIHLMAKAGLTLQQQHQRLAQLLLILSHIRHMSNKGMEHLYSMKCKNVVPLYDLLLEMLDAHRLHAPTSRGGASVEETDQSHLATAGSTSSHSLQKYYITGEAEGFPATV
Experimental: (§1) Binding Affinities for Recombinant Human ER-α and ER-β.
(§2) The binding affinities of ER-α and ER-β were determined by measuring the change of polarization value when the fluorescent estrogen ligand, ES2, was displaced by the tested compounds. Experimental procedures were consistent with the protocol provided by Invitrogen. The fluorescent estrogen ligand, ES2, was provided in methanol/water (4:1, v/v) with the concentration of 1800 nM. Recombinant human ER-α and ER-β were provided in buffer (50 mM bis-tris propane, 400 mM KCl, 2 mM DTT, 1 mM EDTA and 10% glycerol), with the concentration of 734 nM and 3800 nM, respectively. All tested samples were dissolved in either methanol or DMSO. The sample solutions (1 pt) were mixed well with 49 pt of ES2 screening buffer (100 mM potassium phosphate, 100 μg/mL BGG and 0.02% NaN3). The ER-α/ES2 complex was prepared with the fluorescent estrogen ligand ES2, human recombinant ER and ES2 screening buffer with the concentrations of 9 nM ES2 and 30 nM ER-α. The ER-β/ES2 complex was prepared with the fluorescent estrogen ligand ES2, human recombinant ER-β and ES2 screening buffer with the concentrations of 9 nM ES2 and 20 nM ER-ft Reactions were initiated by adding ER/ES2 complex (50 μL) to bring the incubation volume to 100 μL and incubated for 2 h avoiding light. […] Excitation-emission wavelengths for fluorescence polarization were […]. The polarization values in the presence of the test competitors were compared with those in control, in which the competitor was replaced with vehicle. The extent of competition was expressed as the percentage of remaining polarization compared to the control.

[3] = target: T3, recombinant human ER-β (Homo sapiens, UniProt Q92731); test: Binding affinity for recombinant human ER-β (fluorescence polarization, ES2 displacement); settings: for IC50: read-out: binding affinities for ER-β (IC50); for inhibition at 100 µM: 2 h, at 100000 nM compound, read-out: ER-β percent competition
T3 construct: purchased Invitrogen (Carlsbad, Calif.)
Experimental: as §1, §2

[4] = Table 1, mean of at least three experiments
[5] = Table 1, determined only for compounds with >90% competition
[6] = Table 2, determined for compounds with inhibition higher than 90%

T3 sequence (Q92731 whole entry): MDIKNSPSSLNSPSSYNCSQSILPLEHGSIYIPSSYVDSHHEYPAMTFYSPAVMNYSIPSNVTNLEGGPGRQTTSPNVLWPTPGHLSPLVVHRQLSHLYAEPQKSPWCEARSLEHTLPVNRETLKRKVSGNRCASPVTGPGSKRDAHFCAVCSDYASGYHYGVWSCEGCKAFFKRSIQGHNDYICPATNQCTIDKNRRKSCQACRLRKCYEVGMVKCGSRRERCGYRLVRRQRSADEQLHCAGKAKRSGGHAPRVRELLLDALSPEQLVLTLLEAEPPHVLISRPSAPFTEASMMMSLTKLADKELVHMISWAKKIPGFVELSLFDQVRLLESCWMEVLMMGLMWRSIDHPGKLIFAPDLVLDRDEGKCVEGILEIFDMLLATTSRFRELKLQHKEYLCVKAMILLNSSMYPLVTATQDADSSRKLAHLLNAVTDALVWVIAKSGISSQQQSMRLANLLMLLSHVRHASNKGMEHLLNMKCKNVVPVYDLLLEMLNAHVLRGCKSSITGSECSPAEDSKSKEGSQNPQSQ

N#CCC(=C(c1ccc(O)cc1)c1ccc(O)cc1)c1ccccc1 [Compound 11, 4,4-Bis(4-hydroxyphenyl)-3-phenylbut-3-enenitrile]
IC50 [1, 4]: 12800 nM | melting point: 198 to 200 °C | ER-α percent competition ([2]; Table 1, at 100 μM compound): 56% competition

Oc1ccc(C(=C(Cn2cncn2)c2ccccc2)c2ccc(O)cc2)cc1 [Compound 13, 4,4′-(2-Phenyl-3-(1H-1,2,4-triazol-1-yl)prop-1-ene-1,1-diyl)diphenol]
IC50 [1, 4]: 137 nM | melting point: 143 to 145 °C | ER-α percent competition ([2]; Table 1, at 100 μM compound): 12% competition

N#CCC(=C(c1ccc(O)cc1)c1ccc(O)cc1)c1ccc(O)cc1 [Compound 17a, 3,4,4-Tris(4-hydroxyphenyl)but-3-enenitrile]
IC50 [1, 4]: 15200 ± 300 nM | ER-α percent competition ([2]; Table 1, at 100 μM compound): 0% competition

N#CCC(=C(c1ccc(O)cc1)c1ccc(O)cc1)c1ccc(O)c(F)c1 [Compound 17b, 3-(3-Fluoro-4-hydroxyphenyl)-4,4-bis(4-hydroxyphenyl)but-3-enenitrile]
IC50 [1, 4]: 17200 ± 2200 nM | melting point: 180 to 183 °C | ER-α percent competition ([2]; Table 1, at 100 μM compound): 0% competition

Oc1ccc(C(Cn2ccnc2)=C(c2ccc(O)cc2)c2ccc(O)cc2)cc1 [Compound 18a, 4,4′,4″-(3-(1H-Imidazol-1-yl)prop-1-ene-1,1,2-triyl)triphenol]
IC50 [1, 4]: 60 ± 4.1 nM | EC50 [3, 5]: 73.6 ± 29.9 nM | IC50 [3]: 56.3 to 73.6 nM | EC50 [2, 5]: 97.8 ± 42.3 nM | IC50 [2]: 85.2 to 97.8 nM

Oc1ccc(C(=C(Cn2ccnc2)c2ccc(O)c(F)c2)c2ccc(O)cc2)cc1 [Compound 18b, 4,4′-(2-(3-Fluoro-4-hydroxyphenyl)-3-(1H-imidazol-1-yl)prop-1-ene-1,1-diyl)diphenol]
IC50 [1, 4]: 94.4 ± 3.5 nM | EC50 [3, 5]: 56.3 ± 17.8 nM | IC50 [3]: 56.3 to 73.6 nM | EC50 [2, 5]: 85.2 ± 14.2 nM | IC50 [2]: 85.2 to 97.8 nM

Oc1ccc(C(Cn2cncn2)=C(c2ccc(O)cc2)c2ccc(O)cc2)cc1 [Compound 19a, 4,4′,4″-(3-(1H-1,2,4-Triazol-1-yl)prop-1-ene-1,1,2-triyl)triphenol]
IC50 [1, 4]: 3030 ± 150 nM | ER-α percent competition ([2]; Table 1, at 100 μM compound): 45% competition

Oc1ccc(C(=C(Cn2cncn2)c2ccc(O)c(F)c2)c2ccc(O)cc2)cc1 [Compound 19b, 4,4′-(2-(3-Fluoro-4-hydroxyphenyl)-3-(1H-1,2,4-triazol-1-yl)prop-1-ene-1,1-diyl)diphenol]
IC50 [1, 4]: 2980 ± 50 nM | ER-α percent competition ([2]; Table 1, at 100 μM compound): 2% competition

Oc1ccc(C(Cn2cnnc2)=C(c2ccc(O)cc2)c2ccc(O)cc2)cc1 [Compound 20a, 4,4′,4″-(3-(4H-1,2,4-Triazol-4-yl)prop-1-ene-1,1,2-triyl)triphenol]
IC50 [1, 4]: 12500 ± 400 nM | EC50 [3, 5]: 1080 ± 100 nM | EC50 [2, 5]: 943 ± 285 nM

Oc1ccc(C(=C(Cn2cnnc2)c2ccc(O)c(F)c2)c2ccc(O)cc2)cc1 [Compound 20b, 4,4′-(2-(3-Fluoro-4-hydroxyphenyl)-3-(4H-1,2,4-triazol-4-yl)prop-1-ene-1,1-diyl)diphenol]
IC50 [1, 4]: 14200 ± 1100 nM | ER-α percent competition ([2]; Table 1, at 100 μM compound): 0% competition

Nc1ccc(C(Cn2ccnc2)=C(c2ccc(O)cc2)c2ccc(O)cc2)cc1 [Compound 26, 4,4′-(2-(4-Aminophenyl)-3-(1H-imidazol-1-yl)prop-1-ene-1,1-diyl)diphenol]
IC50 [1, 4]: 5.24 ± 0.41 nM | EC50 [3, 5]: 296 ± 154 nM | EC50 [2, 5]: 1830 ± 910 nM

Nc1ccc(C(Cn2cncn2)=C(c2ccc(O)cc2)c2ccc(O)cc2)cc1 [Compound 27, 4,4′-(2-(4-Aminophenyl)-3-(1H-1,2,4-triazol-1-yl)prop-1-ene-1,1-diyl)diphenol]
IC50 [1, 4]: 104 ± 9 nM | ER-α percent competition ([2]; Table 1, at 100 μM compound): 0% competition

Nc1ccc(C(Cn2cnnc2)=C(c2ccc(O)cc2)c2ccc(O)cc2)cc1 [Compound 28, 4,4′-(2-(4-Aminophenyl)-3-(4H-1,2,4-triazol-4-yl)prop-1-ene-1,1-diyl)diphenol]
IC50 [1, 4]: 17.7 ± 1.2 nM | ER-α percent competition ([2]; Table 1, at 100 μM compound): 13% competition

Oc1ccc(C(=C(Cn2ccnc2)c2cccc(O)c2)c2ccc(O)cc2)cc1 [Compound 32, 4,4′-(2-(3-Hydroxyphenyl)-3-(1H-imidazol-1-yl)prop-1-ene-1,1-diyl)diphenol]
IC50 [1, 4]: 60.4 ± 1.7 nM | ER-α percent competition ([2]; Table 1, at 100 μM compound): 0% competition

Nc1cccc(C(Cn2ccnc2)=C(c2ccc(O)cc2)c2ccc(O)cc2)c1 [Compound 35, 4,4′-(2-(3-Aminophenyl)-3-(1H-imidazol-1-yl)prop-1-ene-1,1-diyl)diphenol]
IC50 [1, 4]: 439 ± 16 nM | ER-α percent competition ([2]; Table 1, at 100 μM compound): 60% competition

CC(=C(c1ccc(O)cc1)c1ccc(O)cc1)c1ccc([N+](=O)[O-])cc1 [Compound 37a, 4-(1-(4-Hydroxyphenyl)-2-(4-nitrophenyl)prop-1-enyl)phenol]
aromatase percent inhibition ([1]; Table 2): 75 % inhibition | inhibition at 100 µM ([3]; Table 2): 55% | ER-α percent competition ([2]; Table 2, at 100000 nM compound): 19% competition

CCC(=C(c1ccc(O)cc1)c1ccc(O)cc1)c1ccc([N+](=O)[O-])cc1 [Compound 37b, 4-(1-(4-Hydroxyphenyl)-2-(4-nitrophenyl)but-1-enyl)phenol]
aromatase percent inhibition ([1]; Table 2): 78 % inhibition | inhibition at 100 µM ([3]; Table 2): 66% | ER-α percent competition ([2]; Table 2, at 100000 nM compound): 40% competition

CC(=C(c1ccc(N)cc1)c1ccc(N)cc1)c1ccc([N+](=O)[O-])cc1 [Compound 37c, 4-(1-(4-Aminophenyl)-2-(4-nitrophenyl)prop-1-enyl)benzenamine]
IC50 [1, 6]: 221 nM | times more potent than 7 against aromatase [1]: about 113 times | EC50 ([3]; Table 2): 486 ± 240 nM | EC50 ([2]; Table 2): 213 ± 53.7 nM

CCC(=C(c1ccc(N)cc1)c1ccc(N)cc1)c1ccc([N+](=O)[O-])cc1 [Compound 37d, 4-(1-(4-Aminophenyl)-2-(4-nitrophenyl)but-1-enyl)benzenamine]
IC50 [1, 6]: 62.2 ± 7.8 nM | times more potent than 7 against aromatase [1]: ~400 times | EC50 ([3]; Table 2): 70.8 ± 5.2 nM | EC50 ([2]; Table 2): 72.1 ± 42.6 nM

CC(=C(c1ccc(O)cc1)c1ccc(O)cc1)c1ccc(N)cc1 [Compound 38a, 4-(2-(4-Aminophenyl)-1-(4-hydroxyphenyl)prop-1-enyl)phenol]
IC50 [1, 6]: 230 nM | EC50 ([3]; Table 2): 857 ± 389 nM | EC50 ([2]; Table 2): 11000 ± 827 nM

CCC(=C(c1ccc(O)cc1)c1ccc(O)cc1)c1ccc(N)cc1 [Compound 38b, 4-(2-(4-Aminophenyl)-1-(4-hydroxyphenyl)but-1-enyl)phenol]
IC50 [1, 6]: 8.8 nM | EC50 ([3]; Table 2): 1260 ± 424 nM | EC50 ([2]; Table 2): 1710 ± 630 nM

CC(=C(c1ccc(N)cc1)c1ccc(N)cc1)c1ccc(N)cc1 [Compound 38c, 4-(1,2-Bis(4-aminophenyl)prop-1-enyl)benzenamine]
IC50 [1, 6]: 177 ± 20.2 nM | inhibition at 100 µM ([3]; Table 2): 77% | ER-α percent competition ([2]; Table 2, at 100000 nM compound): 31% competition

CCC(=C(c1ccc(N)cc1)c1ccc(N)cc1)c1ccc(N)cc1 [Compound 38d, 4-(1,2-Bis(4-aminophenyl)but-1-enyl)benzenamine]
IC50 [1, 6]: 13.4 ± 3 nM | inhibition at 100 µM ([3]; Table 2): 76% | ER-α percent competition ([2]; Table 2, at 100000 nM compound): 25% competition
